Experimental data reported in ChEMBL document CHEMBL1201862, “PubChem BioAssay data set” (2004).
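Each compound was tested at five concentrations against cells in 96-well plates for 48 hours. At the GI50, growth is halved.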 Calls of active or inactive are those of the source. No stated cut-off is given here; in the data, active = GI50 up to about 1.1 µM and inactive = higher.

Assays:
Assay in all cases: growth of human tumour cells (NCI), 48 h
[1] = test system: 786-0
[2] = test system: A549
[3] = test system: ACHN
[4] = test system: BT-549
[5] = test system: CAKI-1
[6] = test system: CCRF-CEM
[7] = test system: COLO 205
[8] = test system: DU-145
[9] = test system: EKVX
[10] = test system: HCC 2998
[11] = test system: HCT-116
[12] = test system: HCT-15
[13] = test system: HL-60
[14] = test system: HOP-62
[15] = test system: HOP-92
[16] = test system: HT-29
[17] = test system: Hs-578T
[18] = test system: IGROV-1
[19] = test system: KM12
[20] = test system: LOX IMVI
[21] = test system: M14
[22] = test system: MCF7
[23] = test system: MDA-MB-231
[24] = test system: MDA-MB-435
[25] = test system: MOLT-4
[26] = test system: Malme-3M
[27] = test system: NCI-H226
[28] = test system: NCI-H23
[29] = test system: NCI-H460
[30] = test system: NCI-H522
[31] = test system: NCI/ADR-RES
[32] = test system: OVCAR-3
[33] = test system: OVCAR-4
[34] = test system: OVCAR-5
[35] = test system: OVCAR-8
[36] = test system: PC-3
[37] = test system: RPMI-8226
[38] = test system: SF-268
[39] = test system: SF-295
[40] = test system: SF-539
[41] = test system: SK-MEL-28
[42] = test system: SK-MEL-2
[43] = test system: SK-MEL-5
[44] = test system: SK-OV-3
[45] = test system: SN12C
[46] = test system: SNB-19
[47] = test system: SNB-75
[48] = test system: SR
[49] = test system: SW-620
[50] = test system: T47D
[51] = test system: TK-10
[52] = test system: U-251
[53] = test system: UACC-257
[54] = test system: UACC-62
[55] = test system: UO-31
[56] = test system: A498
[57] = test system: K562
[58] = test system: MDA-N
[59] = test system: RXF 393

Measured: GI50

COC(=O)CCC1=CCC2(SC)C(=O)Nc3cccc1c32 (stereo unspecified)
> 100 µM: [12]
inactive: [1] > 100 µM | [2] > 100 µM | [3] > 100 µM | [4] > 100 µM | [5] > 100 µM | [6] > 100 µM | [7] > 100 µM | [8] 44.5 µM | [9] 65.3 µM | [10] > 100 µM | [11] > 100 µM | [13] > 100 µM | [14] > 100 µM | [15] > 100 µM | [16] > 100 µM | [17] > 100 µM | [18] > 100 µM | [19] > 100 µM | [20] > 100 µM | [21] > 100 µM | [22] > 100 µM | [23] > 100 µM | [24] > 100 µM | [25] > 100 µM | [26] > 100 µM | [27] > 100 µM | [28] > 100 µM | [29] > 100 µM | [30] > 100 µM | [31] > 100 µM | [32] > 100 µM | [33] > 100 µM | [34] > 100 µM | [35] > 100 µM | [36] > 100 µM | [37] > 100 µM | [38] > 100 µM | [39] > 100 µM | [40] > 100 µM | [41] > 100 µM | [42] > 100 µM | [43] > 100 µM | [44] > 100 µM | [45] > 100 µM | [46] > 100 µM | [47] > 100 µM | [48] > 100 µM | [49] > 100 µM | [50] 4.7 µM | [51] > 100 µM | [52] > 100 µM | [53] > 100 µM | [54] > 100 µM | [55] > 100 µM

CNC(=O)N1CN(c2ccccc2)C2(CCN(CCCC3(c4ccc(F)cc4)OCCO3)CC2)C1=O
> 100 µM: [12]
inactive: [1] > 100 µM | [56] > 100 µM | [2] > 100 µM | [3] > 100 µM | [5] > 100 µM | [6] > 100 µM | [7] > 100 µM | [8] > 100 µM | [9] > 100 µM | [10] > 100 µM | [11] > 100 µM | [13] > 100 µM | [14] > 100 µM | [15] > 100 µM | [16] > 100 µM | [17] > 100 µM | [18] > 100 µM | [57] > 100 µM | [19] > 100 µM | [20] > 100 µM | [21] > 100 µM | [22] > 100 µM | [23] > 100 µM | [24] > 100 µM | [58] > 100 µM | [25] > 100 µM | [26] > 100 µM | [27] > 100 µM | [28] > 100 µM | [29] > 100 µM | [30] > 100 µM | [31] > 100 µM | [32] > 100 µM | [33] > 100 µM | [34] > 100 µM | [36] > 100 µM | [37] > 100 µM | [59] > 100 µM | [38] > 100 µM | [39] > 100 µM | [40] > 100 µM | [41] > 100 µM | [42] > 100 µM | [43] > 100 µM | [44] > 100 µM | [45] > 100 µM | [46] > 100 µM | [47] > 100 µM | [48] > 100 µM | [49] > 100 µM | [50] > 100 µM | [51] > 100 µM | [52] > 100 µM | [54] > 100 µM | [55] > 100 µM

CCOP(=O)(COCCn1nc(Br)c(=O)[nH]c1=O)OCC
inactive: [56] > 100 µM | [2] > 100 µM | [3] > 100 µM | [5] > 100 µM | [6] > 100 µM | [7] > 100 µM | [8] > 100 µM | [9] > 100 µM | [10] > 100 µM | [13] > 100 µM | [14] > 100 µM | [15] > 100 µM | [17] > 100 µM | [18] > 100 µM | [57] > 100 µM | [19] > 100 µM | [20] > 100 µM | [21] > 100 µM | [22] > 100 µM | [23] > 100 µM | [24] > 100 µM | [58] > 100 µM | [25] > 100 µM | [26] > 100 µM | [27] > 100 µM | [28] > 100 µM | [29] > 100 µM | [30] > 100 µM | [31] > 100 µM | [32] > 100 µM | [34] > 100 µM | [35] > 100 µM | [36] > 100 µM | [37] > 100 µM | [59] > 100 µM | [38] > 100 µM | [40] > 100 µM | [41] > 100 µM | [42] > 100 µM | [43] > 100 µM | [45] > 100 µM | [46] > 100 µM | [47] > 100 µM | [48] > 100 µM | [49] > 100 µM | [50] > 100 µM | [52] > 100 µM | [53] > 100 µM | [55] > 100 µM
> 100 µM: [12]
